Source: patent US12115176B2, “Methods and compositions relating to ClbP inhibition” (PRESIDENT AND FELLOWS OF HARVARD COLLEGE, priority 2021, dated 2024)
In brackets after ≈: the same amount, converted by molar mass. Where two headings read alike, the source gives them in different places.

Tests used:
Klebsiella oxytoca = experiment: Bacterial MIC assay (broth dilution); assay type: cell-based; settings: read-out: MICs by compound
Lactobacillus rhamnosus = experiment: Bacterial MIC assay (broth dilution); assay type: cell-based; settings: Lacticaseibacillus rhamnosus, read-out: MICs by compound
Enterococcus faecalis = experiment: Bacterial MIC assay (broth dilution); assay type: cell-based; settings: read-out: MICs by compound
Bifidobacterium longum = experiment: Bacterial MIC assay (broth dilution); assay type: cell-based; settings: read-out: MICs by compound
Escherichia coli NC101 = experiment: Bacterial MIC assay (broth dilution); assay type: cell-based; settings: read-out: MICs by compound
Description: (§1) MICs of compounds against different bacterial species were determined using a modified version of a broth microdilution protocol which has been previously reported.^1 Briefly, cultures of each species indicated were inoculated from frozen stocks in deoxygenated Wilkins-Chalgren Anaerobic Medium (WCAM) inside of an anerobic chamber with an 92.5% N2/5% CO2/2.5% H2 atmosphere. Cultures were grown for 24-48 hours in a 37° C. incubator at which point an OD600-measurement was taken for each culture and was accordingly diluted in fresh WCAM to an equivalent of OD600=0.01. Diluted cultures were then distributed into the wells of a clear, flat-bottom 384-well plate and the compound of interest was added to a final DMSO concentration of 2% (or DMSO only for positive controls). […] mineral oil (Millipore Sigma) was deposited on top of the cultures and plates were covered with a clear adhesive plate seal. Plates were incubated at 37° C. for 16 hours, at which point the OD600 of all wells was recorded on a SpectraMax M2 plate reader (Molecular Devices).

[1] = target: E. coli BL21 overexpressing ClbP (Escherichia coli, UniProt Q0P7K6); experiment: ClbP fluorescence activity assay (live cells); assay type: cell-based
Description: ClbP fluorescence activity assay (live cells). One 5 mL starter culture each E. coli BL21 pET-29b-ClbP and pET-29b-ClbP-S95A were inoculated from frozen stocks and grown overnight at 37° C. in LB medium supplemented with 50 μg/ml kanamycin (LB+kan). Overnight cultures were diluted 1:100 in fresh LB+kan and incubated at 37° C. to an OD600 of 0.3, at which point protein expression was induced by the addition of 500 μM isopropyl β-D-1-thiogalactopyranoside (IPTG) and cultures were moved to 15° C. for 4 hours. Cultures were then aliquoted in a black 384-well plate and the appropriate concentration of inhibitor was added as a DMSO stocks to a final concentration of 1% DMSO in a volume of 30 μL. Reactions were initiated by the addition of 10 μL of LB+kan+IPTG containing the fluorogenic substrate (final concentration=100 μM). Plastes were incubated at 25° C. with intermittent shaking while taking regular fluorescence measurements in a Bio-Tek Synergy HTX multimode plate reader with an excitation filter of 360/40 nm and an emission filter of 440/20 nm. “% activity” was determined based on the formula above using RFU measurements after 7 hours.

purified ClbP = purified ClbP (Escherichia coli, UniProt Q0P7K6); experiment: ClbP fluorescence activity assay (in vitro); assay type: biochemical, Escherichia coli CFT073; settings: for speed of reaching maximum potency, in words: slow-binding inhibition assay, 100 nM
Source text: Constructs and protein purification for in vitro assays. ClbP constructs described in this publication were derived from a previously described plasmid containing the Escherichia coli CFT073 ClbP sequence (GenBank ID: NP_754344.1) inserted between the NdeI and XhoI restriction sites of pET29b (Addgene plasmid #48244).^14 All in vitro experiments used a construct bearing a C-terminal 10×His tag. This longer polyhistidine-tag was obtained by extension of the previously described 6×His tag through site-directed mutagenesis. All site-directed mutations were introduced using the Quikchange mutagenesis protocol (Stratagene) and confirmed by Sanger DNA sequencing of the whole open reading frame. Plasmids were transformed into chemically competent C41(DE3) (Lucigen) cells and proteins were isolated as previously described.^34
ClbP fluorescence activity assay (in vitro). Assays were performed in a buffer containing 50 mM Tris, 200 mM NaCl, 0.02% w/v DDM at pH 8.0 with 25 nM purified ClbP and 25 μM fluorogenic substrate in a total volume of 20 μL.^34 Purified ClbP was defrosted on ice from stocks stored at −80° C. Stocks were diluted to 50 nM enzyme in assay buffer in the wells of a black, flat-bottom 384-well plate and the appropriate inhibitor in DMSO or DMSO was added to a final concentration of 1%. For experiments testing different inhibitor concentrations, reactions were allowed to sit for 1 hour at room temperature. For experiments testing different preincubation times, the inhibitor in DMSO was added to each reaction X minutes before initiating the reaction, where X is the time indicated on the x-axis for that sample. For experiments to test whether hydrolysis of the boronic ester was rate-limiting, the inhibitor was added to buffer with no enzyme present and allowed to sit at room temperature for the time indicated before adding the enzyme. In all cases, reactions were initiated by the addition of 10 μL, of buffer containing the 50 μM fluorogenic substrate to achieve a final concentration of 25 μM and pipetting once with a multichannel pipette to mix. Reaction progress was monitored in a plate reader (Bio-Tek Synergy HTX multimode plate reader) with an excitation filter of 360/40 nm and an emission filter of 440/20 nm. “% activity” was determined based on the measured relative fluorescence units (RFU) of each condition after 1 hour using the following formula: […]

ClbP = experiment: LC-MS quantitation of N-myristoyl-D-Asn produced by pks+ E. coli; assay type: cell-based, E. coli BW25113 BACpks; settings: pks+ E. coli (BW pks), versus DMSO
Description: LC-MS quantitation of N-myristoyl-D-Asn produced by pks^+ E. coli. One 5 mL starter culture each of E. coli BW25113 BACpks and E. coli BW25113 BACpksΔclbP was inoculated from frozen stocks and grown overnight at 37° C. in LB medium supplemented with 35 μg/ml chloramphenicol (LB+cam). Overnights were diluted 1:100 in fresh LB+cam+1% DMSO with the appropriate concentration of inhibitor and grown for 20 hours at 37° C. in a deep well plate in a shaking incubator. A 500 μL aliquot was taken from each sample, flash frozen in liquid nitrogen and lyophilized to dryness. Lyophilized pellets were extracted with 500 μL LC-MS grade methanol which contained 100 nM d27-N-myristoyl-D-asparagine as an internal standard, prepared as previously described, and vortexed for 30 seconds. After centrifugation at 16,500×g for 10 minutes in a tabletop microcentrifuge, supernatants were transferred to fresh 1.5 mL tubes and stored at −20° C. overnight. Samples were centrifuged again, and the supernatants analyzed by LC-MS/MS on a Waters Xevo TQ-S UPLC-triple quadrupole mass spectrometer using an Agilent Poroshell 120 EC-C18 column (2.7 μm, 4.6 mm×50 mm). […]

[2] = system: a variety of bacterial strains from common gut phyla, including E. coli; experiment: Turbidity MIC assay, all strains together; assay type: cell-based; settings: Escherichia coli; all strains tested; upper limit tested 200 μM; read-out: MICs in liquid culture
Source text: Compound 3 is an inhibitor of colibactin-associated genotoxicity. Since colibactin is produced in the context of the gut microbiota, it is essential to understand how 3 can affect other members of this community and whether it remains an effective inhibitor under these conditions. […] A turbidity assay was used to determine minimum inhibitory concentrations (MICs) in liquid culture of 1-4 against a variety of bacterial strains from common gut phyla, including E. coli (Table 3).
as §1

[3] = system: FANCD2 in HeLa cell extracts; experiment: Western blot for FANCD2; assay type: cell-based, human; settings: 0.5 μg/mL mitomycin C or 7.5 μg/mL cisplatin, 4 hours, no bacteria
Description: Western Blot for FANCD2. Infections were carried out as described above. For conditions which involved other small molecules, no bacteria were introduced during the infection and cells were treated with either 0.5 μg/mL mitomycin C (MMC) or 7.5 μg/mL cisplatin under the same conditions for 4 hours. 20 hours after infection, cells were lysed directly in the culture wells (Lysis buffer: 50 mM Tris, (pH 8.0), 150 mM NaCl, 1% Triton X-100, 0.5% Sodium deoxycholate, 0.05% sodium dodecylsulfate, 1 mM MgSO4, SIGMAFAST Protease inhibitor mix, 100 U/mL benzonase (Millipore-Sigma). Lysates were then spun down at 16,000×g to remove particulates and the supernatant was mixed 1:1 with 2X Laemmli sample buffer (Bio-Rad) containing 50 mg/mL dithiothreitol (DTT). Samples were then heated at 70° C. for 10 minutes and run on an SDS-PAGE gel (3-8% Tris-Acetate Novex gel, Invitrogen) at 150 V for 1.5 hours at 4° C. Bands were then transferred to PVDF membranes (100 V, 1 hour at 4° C.) and blocked with 10% skim milk powder in TBST buffer at 4° C. overnight. Blots were probed sequentially with either mouse anti-actin (1.5 μg/mL) or mouse anti-FANCD2 (0.1 μg/mL) primary antibodies (Thermo Fisher Scientific, Catalog #MA511869 and MA123347), followed by a peroxidase-conjugated goat anti-mouse secondary antibody (Jackson ImmunoResearch product 115-035-003, 0.08 μg/mL). Each probing step was conducted for 90 minutes at room temperature n 2.5% skim milk powder in TBST. Before imaging, blots were washed 3×15 minutes each in TBST […]. Blots were imaged using the SuperSignal™ West Pico PLUS Chemiluminescent Substrate (Thermo Fisher Scientific) kit following the manufacturer's instructions and imaged using an Azure Biosystems c300 imager.

[4] = anaerobic, OD600 after 15 hours

**Q.** For `O=C(N[C@H](CO)[C@H](O)c1ccc([N+](=O)[O-])cc1)C(Cl)Cl` [CAM, Chloramphenicol, reference compound], which MIC (Klebsiella oxytoca; [4]) is on record?
**A.** 6.25 µM (≈ 2.02 µg/mL)

**Q.** And the MIC (Lactobacillus rhamnosus; Lactobacillus rhamnosus, anaerobic, OD600 after 15 hours)?
**A.** 25 µM (≈ 8.08 µg/mL)

**Q.** What about the MIC (Enterococcus faecalis; [4]) of the same compound?
**A.** 50 µM (≈ 16.2 µg/mL)

**Q.** And the MIC (Bifidobacterium longum; [4])?
**A.** 12.5 µM (≈ 4.04 µg/mL)

**Q.** And the MIC (Escherichia coli NC101; Escherichia coli NC101, anaerobic, OD600 after 15 hours)?
**A.** 25 µM (≈ 8.08 µg/mL)

**Q.** What does the source list for `CC1(C)OB([C@@H](CC(N)=O)NC(=O)c2ccccc2)OC1(C)C` [Compound 4]?
**A.** IC50 [1]: 27 nM; MIC (Klebsiella oxytoca; 15 h): > 200 µM; MIC (Lactobacillus rhamnosus; 15 h): > 200 µM; MIC (Enterococcus faecalis; 15 h): > 200 µM; IC50 (purified ClbP): 69 nM; speed of reaching maximum potency, in words (purified ClbP): showed a significant lag; MIC (Bifidobacterium longum; 15 h): > 200 µM; quantity of N-myristoyl-D-Asn prodrug released (ClbP): slightly lower potency than the others; MIC [2]: > 200 µM; MIC (Escherichia coli NC101; Escherichia coli, NC101, 15 h): > 200 µM

**Q.** With `CC1(C)OB([C@@H](CC(N)=O)NC(=O)c2ccc3ccccc3c2)OC1(C)C` [Compound 2] as the compound, how does the IC50 [1] read?
**A.** 7.2 nM

**Q.** What about the MIC (Klebsiella oxytoca; 15 h) of the same compound?
**A.** > 200 µM

**Q.** What about the MIC (Lactobacillus rhamnosus; 15 h) of the same compound?
**A.** > 200 µM

**Q.** And the MIC (Enterococcus faecalis; 15 h)?
**A.** > 200 µM

**Q.** What about the IC50 (purified ClbP) of the same compound?
**A.** 34 nM

**Q.** What about the “speed of reaching maximum potency, in words” value (purified ClbP) of the same compound?
**A.** achieved their maximum potency faster than compound 4

**Q.** What about the MIC (Bifidobacterium longum; 15 h) of the same compound?
**A.** > 200 µM

**Q.** And the MIC [2]?
**A.** > 200 µM

**Q.** And the MIC (Escherichia coli NC101; Escherichia coli, NC101, 15 h)?
**A.** > 200 µM

**Q.** `N.N.[Cl][Pt][Cl]` [cisplatin, reference compound] was tested. Which “abundance of FANCD2-Ub in HeLa cells” value [3] did it give?
**A.** increase in abundance of FANCD2-Ub

**Q.** `CO[C@@]12[C@H](COC(N)=O)C3=C(C(=O)C(C)=C(N)C3=O)N1C[C@@H]1N[C@@H]12` [mitomycin C, reference compound] was tested. Which “abundance of FANCD2-Ub in HeLa cells” value [3] did it give?
**A.** increase in abundance of FANCD2-Ub

**Q.** For `CCCCCC(=O)N[C@H](CC(N)=O)B1OC(C)(C)C(C)(C)O1` [Compound 1], which IC50 [1] is on record?
**A.** 5.6 nM

**Q.** And the MIC (Klebsiella oxytoca; 15 h)?
**A.** > 200 µM

**Q.** What about the MIC (Lactobacillus rhamnosus; 15 h) of the same compound?
**A.** > 200 µM

**Q.** And the MIC (Enterococcus faecalis; 15 h)?
**A.** > 200 µM

**Q.** And the IC50 (purified ClbP)?
**A.** 40 nM

**Q.** What about the MIC (Bifidobacterium longum; 15 h) of the same compound?
**A.** > 200 µM

**Q.** And the MIC [2]?
**A.** > 200 µM

**Q.** And the MIC (Escherichia coli NC101; Escherichia coli, NC101, 15 h)?
**A.** > 200 µM
